Experiments:
[1] = tested on: nr0b2; test: Real-time quantitative PCR of PLsis marker gene expression; assay type: cell-based, human; settings: HepG2 cells, 24 hr exposure, relative value, control group = 1.0, GAPDH internal standard, n=3
Protocol: (§1) Using RNeasy Mini Kit (QIAGEN), total RNA was purified from the cells, and cDNA was synthesized in a 100 μL system using TaqMan Reverse Transcription Reagents (PE Applied Biosystems).
(§2) As the primer for glyceraldehyde-3-phosphoric acid dehydrogenase (GAPDH) and VIC labeled probe, those attached to TaqMan GAPDH Control Reagents (PE Applied Biosystems) were used.
(§3) Using 100 μL of the reaction mixture containing 5 μL of cDNA (1×TaqMan Universal PCR Master Mix (PE Applied Biosystems), 200 nM forward primer, 200 nM reverse primer and 200 nM TaqMan probe), 40 cycles of (1 cycle=95° C., 15 sec; 60° C., 1 min) PCR were performed. PCR and fluorescence detection were performed using ABI PRISM Sequence Detector 7000 (PE Applied Biosystems). As the internal standard, GAPDH was used to amend the measurement values. For the determination of significant difference, t-test was used (n=3).
(§4) For each test compound, the expression variation rate of 12 genes each relative to the control group was determined.

[2] = tested on: tagln; test: as above; assay type: cell-based, human; settings: HepG2 cells, 24 hr exposure, relative value, control group = 1.0, GAPDH internal standard, n=3
Protocol: as §1, §2, §3, §4

[3] = tested on: asah1; test: as above; assay type: cell-based, human; settings: HepG2 cells, 24 hr exposure, relative value, control group = 1.0, GAPDH internal standard, n=3
Protocol: as §1, §2, §3, §4

[4] = tested on: fabp1; test: as above; assay type: cell-based, human; settings: HepG2 cells, 24 hr exposure, relative value, control group = 1.0, GAPDH internal standard, n=3
Protocol: as §1, §2, §3, §4

[5] = tested on: mgc4171; test: as above; assay type: cell-based, human; settings: HepG2 cells, 24 hr exposure, relative value, control group = 1.0, GAPDH internal standard, n=3
Protocol: as §1, §2, §3, §4

[6] = tested on: kiaa1001; test: as above; assay type: cell-based, human; settings: HepG2 cells, 24 hr exposure, relative value, control group = 1.0, GAPDH internal standard, n=3
Protocol: as §1, §2, §3, §4

[7] = tested on: serpina3; test: as above; assay type: cell-based, human; settings: HepG2 cells, 24 hr exposure, relative value, control group = 1.0, GAPDH internal standard, n=3
Protocol: as §1, §2, §3, §4

[8] = tested on: lss; test: as above; assay type: cell-based, human; settings: HepG2 cells, 24 hr exposure, relative value, control group = 1.0, GAPDH internal standard, n=3
Protocol: as §1, §2, §3, §4

[9] = tested on: depp; test: as above; assay type: cell-based, human; settings: HepG2 cells, 24 hr exposure, relative value, control group = 1.0, GAPDH internal standard, n=3
Protocol: as §1, §2, §3, §4

[10] = tested on: hpn; test: as above; assay type: cell-based, human; settings: HepG2 cells, 24 hr exposure, relative value, control group = 1.0, GAPDH internal standard, n=3
Protocol: as §1, §2, §3, §4

[11] = tested on: flj22362; test: as above; assay type: cell-based, human; settings: HepG2 cells, 24 hr exposure, relative value, control group = 1.0, GAPDH internal standard, n=3
Protocol: as §1, §2, §3, §4

[12] = tested on: slc2a3; test: as above; assay type: cell-based, human; settings: HepG2 cells, 24 hr exposure, relative value, control group = 1.0, GAPDH internal standard, n=3
Protocol: as §1, §2, §3, §4

[13] = tested on: HepG2 cells; test: Electron-microscopic examination of PLsis induction potential (myelin-like structure)
Excerpt: Using 30 kinds of the following commercially available drugs as test compounds, the level of PLsis induction potential was examined with the emergence of an intracellular myelin-like structure or a structure having a high electron density, which is an early image thereof, as an index by electronmicroscopic observation.
HepG2 cells (purchased from ATCC) were exposed to the test compound by a conventional method. HepG2 cells used were of the cell growth phase. The attached HepG2 cells were washed twice with. Dulbecco's phosphate buffered saline (calcium and magnesium salt free; PBS(−))(Dainippon Pharmaceutical Co., Ltd.) containing 0.05 w/v % EDTA, detached with a cell dissociation solution of 0.25 vol % trypsin-1 mmol/L EDTA (Gibco BRL) diluted 2-fold with PBS(−), centrifuged to remove the supernatant, and adjusted to a concentration of 2×10^5 cells/250 μL with a culture medium [Dulbecco's modified Eagle medium (DMEM)(Gibco BRL) supplemented with 50 U/mL penicillin (Gibco BRL)-[…] streptomycin (Gibco BRL) and 5 vol % FBS (Bio whittaker)]. DMSO alone or a culture medium containing the above-mentioned test compound in DMSO solution was dispensed to a well by 250 μL, the above-mentioned cell suspension (250 μL) was added, and cultured in a CO2 incubator (7100; Napco) under an atmosphere of 5% CO2—95% air at 37° C.
After culture for 72 hr, the culture medium was removed, and the cells were fixed with 1 w/v % glutaraldehyde solution. After fixing with 2 w/v % osmic acid for 2 hr by a conventional method and dehydrating with an alcohol series, the cells were embedded in a resin (Quetol 812). Ultrathin slices were prepared and, after electron staining, observed with an electron microscope (H-300; Hitachi) and photographed in 3 or more pictures per each sample (magnification ×5000). The processing after post-fixation was performed by Applied Medical Research.

[14] = tested on: HepG2 cells; test: Highest concentration at which cells were viable after 72 hr exposure; assay type: cell-based, human

| expression variation rate nr0b2 [1] | expression variation rate tagln [2] | expression variation rate asah1 [3] | expression variation rate fabp1 [4] | expression variation rate mgc4171 [5] | expression variation rate kiaa1001 [6] | expression variation rate serpina3 [7] | expression variation rate lss [8] | expression variation rate depp [9] | expression variation rate hpn [10] | expression variation rate flj22362 [11] | expression variation rate slc2a3 [12] | frequency of appearance of myelin-like structure [13] | Structure (SMILES) | addition concentration (highest concentration at which cells survived after 72 hr of culture) [14] |
| --- | --- | --- | --- | --- | --- | --- | --- | --- | --- | --- | --- | --- | --- | --- |
| 0.63 | 1.06 | 1.35 | 1.01 | 0.99 | 1.34 | 0.95 | 1.23 | 1.05 | 1.16 | 1.26 | 0.99 | − | CNS(=O)(=O)Cc1ccc2[nH]cc(CCN(C)C)c2c1 [sumatriptan] | 25 µmol/L |
| 2.56 | 0.27 | 4.50 | 1.90 | 1.60 | 1.85 | 2.12 | 3.01 | 2.02 | 2.19 | 1.53 | 0.24 | ++ | CC/C(=C(\c1ccccc1)c1ccc(OCCN(C)C)cc1)c1ccccc1 [tamoxifen] | 8.3 µmol/L |
| 0.77 | 0.46 | 1.36 | 5.07 | 1.32 | 5.79 | 2.46 | 2.03 | 2.02 | 2.85 | 1.57 | 0.38 | + | CSc1ccc2c(c1)N(CCC1CCCCN1C)c1ccccc1S2 (stereo not shown) [thioridazine] | 8.3 µmol/L |
| 1.33 | 0.59 | 2.91 | 1.42 | 1.12 | 2.24 | 1.95 | 1.05 | 2.67 | 1.74 | 1.71 | 0.70 | + | CN(C)C/C=C(/c1ccc(Br)cc1)c1cccnc1 [zimelidine] | 25 µmol/L |

Further lines, the molecule ahead of its results:

| Structure (SMILES) | expression variation rate nr0b2 [1] | expression variation rate tagln [2] | expression variation rate asah1 [3] | expression variation rate fabp1 [4] | expression variation rate mgc4171 [5] | expression variation rate kiaa1001 [6] | expression variation rate serpina3 [7] | expression variation rate lss [8] | expression variation rate depp [9] | expression variation rate hpn [10] | expression variation rate flj22362 [11] | expression variation rate slc2a3 [12] | frequency of appearance of myelin-like structure [13] | addition concentration (highest concentration at which cells survived after 72 hr of culture) [14] |
| --- | --- | --- | --- | --- | --- | --- | --- | --- | --- | --- | --- | --- | --- | --- |
| CCN(CC)CCNC(=O)c1ccc(N)cc1 [procainamide] | 0.74 | 0.85 | 0.86 | 1.00 | 1.08 | 1.78 | 0.96 | 0.90 | 0.98 | 1.08 | 0.73 | 0.88 | − | 25 µmol/L |
| CN[C@H]1CC[C@@H](c2ccc(Cl)c(Cl)c2)c2ccccc21 [sertraline] | 1.79 | 0.37 | 3.08 | 4.14 | 1.94 | 2.38 | 2.69 | 3.91 | 4.44 | 3.07 | 3.49 | 0.14 | ++ | 8.3 µmol/L |
| CC(C)NCC(O)c1ccc(NS(C)(=O)=O)cc1 (stereo not shown) [sotalol] | 0.63 | 0.80 | 1.39 | 0.98 | 0.72 | 0.84 | 0.78 | 0.88 | 0.80 | 0.79 | 0.85 | 1.53 | − | 25 µmol/L |
| Cc1cc(NS(=O)(=O)c2ccc(N)cc2)no1 [sulfamethoxazole] | 0.82 | 0.99 | 1.26 | 0.85 | 0.78 | 0.84 | 0.98 | 0.82 | 0.70 | 0.89 | 0.87 | 1.11 | − | 25 µmol/L |

Reference: patent US20070218460A1, “Method of Estimating Toxicity of Drug” (TAKEDA PHARMACEUTICAL COMPANY LIMITED, priority 2003, published 2007)
